US9302999B2, “Substituted triazoles as herbicides” (E. I. DU PONT DE NEMOURS AND COMPANY, priority 2012, dated 2016)

Legend:
Format in all cases: in vivo
[1] = tested on: velvetleaf (Abutilon theophrasti); experiment: Test E pre-/postemergence: velvetleaf; details: Preemergence, scale 0 to 100
Excerpt: (§1) Seeds of plant species selected from corn (Zea mays), soybean (Glycine max), velvetleaf (Abutilon theophrasti), lambsquarters (Chenopodium album), poinsettia, wild (wild poinsettia, Euphorbia heterophylla), pigweed, palmer (palmer pigweed, Amaranthus palmeri), waterhemp (common waterhemp, Amaranthus rudis), smartweed (ladysthumb smartweed, Polygonum persicaria), surinam grass (Brachiaria decumbens), crabgrass, large (large crabgrass, Digitaria sanguinalis), crabgrass, Brazil (Brazilian crabgrass, Digitaria horizontalis), panicum, fall (fall panicum, Panicum dichotomiflorum), foxtail, giant (giant foxtail, Setaria faberii), foxtail, green (green foxtail, Setaria viridis), goosegrass (Eleusine indica), johnsongrass (Sorghum halepense), ragweed (common ragweed, Ambrosia elation), barnyardgrass (Echinochloa crus-galli), sandbur (southern sandbur, Cenchrus echinatus), arrowleaf sida (Sida rhombifolia), ryegrass, Italian (Italian ryegrass, Lolium multiflorum), dayflower, (VA) (Virginia dayflower, Commelina virginica), field bindweed (Convolvulus arvensis), cocklebur (common cocklebur, Xanthium strumarium), morningglory (Ipomoea coccinea), nightshade (eastern black nightshade, Solanum ptycanthum), kochia (Kochia scoparia), nutsedge, yellow (yellow nutsedge, Cyperus esculentus) and beggarticks (hairy beggarticks, Bidens pilosa) were planted into a silt loam soil and treated preemergence with test chemicals formulated in a non-phytotoxic solvent mixture which included a surfactant. At the same time, plants selected from these crop and weed species were planted in pots containing a growing medium comprising spaghnum peat moss, vermiculite, wetting agent and starter nutrients and treated with postemergence applications of some of the test chemicals formulated in the same manner. Plants ranged in height from 2 to 18 cm for postemergence treatments (1- to 4-leaf stage).
(§2) Treated plants and controls were maintained in a greenhouse for 14 to 21 days, after which time all species were compared to controls and visually evaluated. Plant response ratings, summarized in Table E, are based on a scale of 0 to 100 where 0 is no effect and 100 is complete control. A dash (-) response means no test result.

[2] = tested on: smartweed (ladysthumb smartweed, Polygonum persicaria); experiment: Test E pre-/postemergence: smartweed; details: Preemergence, scale 0 to 100
Excerpt: as §1, §2

[3] = tested on: surinam grass (Brachiaria decumbens); experiment: Test E pre-/postemergence: surinam grass; details: Preemergence, scale 0 to 100
Excerpt: as §1, §2

[4] = tested on: johnsongrass (Sorghum halepense); experiment: Test E pre-/postemergence: johnsongrass; details: Preemergence, scale 0 to 100
Excerpt: as §1, §2

[5] = tested on: ragweed (common ragweed, Ambrosia elation); experiment: Test E pre-/postemergence: ragweed; details: Preemergence, scale 0 to 100
Excerpt: as §1, §2

[6] = tested on: morningglory (Ipomoea coccinea); experiment: Test E pre-/postemergence: morningglory; details: Preemergence, scale 0 to 100
Excerpt: as §1, §2

[7] = tested on: kochia (Kochia scoparia); experiment: Test E pre-/postemergence: kochia; details: Preemergence, scale 0 to 100
Excerpt: as §1, §2

[8] = tested on: smartweed (ladysthumb smartweed, Polygonum persicaria); experiment: Test F pre-/postemergence: smartweed
Excerpt: (§3) Seeds of plant species selected from corn (Zea mays), soybean (Glycine max), velvetleaf (Abutilon theophrasti), lambsquarters (Chenopodium album), poinsettia, wild (wild poinsettia, Euphorbia heterophylla), pigweed, palmer (palmer pigweed, Amaranthus palmeri), waterhemp (common waterhemp, Amaranthus rudis), surinam grass (Brachiaria decumbens), crabgrass, Brazil (Brazilian crabgrass, Digitaria horizontalis), panicum, fall (fall panicum Panicum dichotomiflorum), crabgrass, large (large crabgrass, Digitaria sanguinalis), foxtail, giant (giant foxtail, Setaria faberii), foxtail, green (green foxtail Setaria viridis), goosegrass (Eleusine indica), ragweed (common ragweed, Ambrosia elatior), barnyardgrass (Echinochloa crus-galli), sandbur (southern sandbur, Cenchrus echinatus), arrowleaf sida (Sida rhombifolia), ryegrass, Italian (Italian ryegrass, Lolium multiflorum), dayflower, VA (Virginia (VA) dayflower, Commelina virginica), field bindweed (Convolvulus arvensis), cocklebur (common cocklebur, Xanthium strumarium), morningglory (Ipomoea coccinea), nightshade (eastern black nightshade, Solanum ptycanthum), kochia (Kochia scoparia), nutsedge, yellow (yellow nutsedge, Cyperus esculentus), johnsongrass (Sorghum halepense), smartweed (ladysthumb smartweed, Polygonum persicaria), and beggarticks (hairy beggarticks, Bidens pilosa), were planted into a silt loam soil and treated preemergence with test chemicals formulated in a non-phytotoxic solvent mixture which included a surfactant. At the same time, plants selected from these crop and weed species and also pigweed (Amaranthus retroflexus), waterhemp_RES1 (ALS/Triazine resistant common waterhemp, Amaranthus rudis) and waterhemp_RES2 (ALS/HPPD resistant common waterhemp, Amaranthus rudis) were planted in pots containing a planting medium comprising spaghnum peat moss, vermiculite, wetting agent and starter nutrients treated with postemergence applications of some of the test chemicals formulated in the same manner. Plants ranged in height from 2 to 18 cm for postemergence treatments (1- to 4-leaf stage).
as §2

[9] = tested on: waterhemp_RES1 (ALS/Triazine resistant common waterhemp, Amaranthus rudis); experiment: Test F postemergence: waterhemp_RES1; details: scale 0 to 100
Excerpt: as §3, §2

[10] = Preemergence, 16 g ai/ha, scale 0 to 100, 0 no effect, 100 complete control
[11] = Preemergence, 31 g ai/ha, scale 0 to 100, 0 no effect, 100 complete control
[12] = Preemergence, 125 g ai/ha, scale 0 to 100
[13] = Preemergence, 250 g ai/ha, scale 0 to 100
[14] = Postemergence, 250 g ai/ha, scale 0 to 100
[15] = Postemergence, 31 g ai/ha, scale 0 to 100
[16] = Postemergence, 125 g ai/ha, scale 0 to 100

Structure (SMILES)	Plant response rating: Velvetleaf ([1]; 16 g ai/ha)	Plant response rating: Velvetleaf ([1]; 31 g ai/ha)	Plant response rating: Velvetleaf ([1]; 62 g ai/ha)	Plant response rating: Velvetleaf ([1]; 125 g ai/ha)	Plant response rating: Velvetleaf ([1]; 250 g ai/ha)	Plant response rating: Surinam Grass ([3]; 16 g ai/ha)	Plant response rating: Surinam Grass ([3]; 31 g ai/ha)	Plant response rating: Surinam Grass ([3]; 62 g ai/ha)	Plant response rating: Surinam Grass ([3]; 125 g ai/ha)	Plant response rating: Surinam Grass ([3]; 250 g ai/ha)	Plant response rating: Johnsongrass ([4]; 16 g ai/ha)	Plant response rating: Johnsongrass ([4]; 31 g ai/ha)	Plant response rating: Johnsongrass ([4]; 62 g ai/ha)	Plant response rating: Johnsongrass ([4]; 125 g ai/ha)	Plant response rating: Johnsongrass ([4]; 250 g ai/ha)	Plant response rating: Ragweed ([5]; 16 g ai/ha)	Plant response rating: Ragweed ([5]; 31 g ai/ha)	Plant response rating, Smartweed [8, 11]	Plant response rating, Smartweed [8, 12]	Plant response rating, Smartweed [8, 13]	further results
FC(F)(F)COc1nn(-c2ccc(C(F)(F)F)cc2)nc1Cc1ccnc(C(F)(F)F)c1 [Compound 14, 4-[[5-(2,2,2-trifluoroethoxy)-2-[4-(trifluoromethyl)phenyl]-2H-1,2,3-triazol-4-yl]methyl]-2-(trifluoromethyl)pyridine]	20	35	50	80	95	5	10	25	65	100	10	20	70	90	95	0	20	–	–	–	Plant response rating: Smartweed ([2]; 31 g ai/ha): 25; Plant response rating: Smartweed ([2]; 62 g ai/ha): 80; Plant response rating: Smartweed ([2]; 250 g ai/ha): 80; Plant response rating: Ragweed ([5]; 62 g ai/ha): 35; Plant response rating: Ragweed ([5]; 125 g ai/ha): 80; Plant response rating: Ragweed ([5]; 250 g ai/ha): 90; Plant response rating: Morningglory ([6]; 16 g ai/ha): 0; Plant response rating: Morningglory ([6]; 31 g ai/ha): 20; Plant response rating: Morningglory ([6]; 62 g ai/ha): 35; Plant response rating: Morningglory ([6]; 125 g ai/ha): 75; Plant response rating: Morningglory ([6]; 250 g ai/ha): 75; Plant response rating: Kochia ([7]; 16 g ai/ha): 20; Plant response rating: Kochia ([7]; 31 g ai/ha): 50; Plant response rating: Kochia ([7]; 62 g ai/ha): 90; Plant response rating: Kochia ([7]; 125 g ai/ha): 98; Plant response rating: Kochia ([7]; 250 g ai/ha): 100
COc1nn(-c2ccc(C(F)(F)F)cc2)nc1Cc1ccnc(C(F)(F)F)c1 [Compound 15, 4-[[5-methoxy-2-[4-(trifluoromethyl)phenyl]-2H-1,2,3-triazol-4-yl]methyl]-2-(trifluoromethyl)pyridine]	20	30	65	65	95	5	50	75	98	100	10	65	65	98	100	0	5	–	–	–	Plant response rating: Smartweed ([2]; 31 g ai/ha): 60; Plant response rating: Smartweed ([2]; 62 g ai/ha): 98; Plant response rating: Smartweed ([2]; 125 g ai/ha): 98; Plant response rating: Smartweed ([2]; 250 g ai/ha): 100; Plant response rating: Ragweed ([5]; 125 g ai/ha): 30; Plant response rating: Ragweed ([5]; 250 g ai/ha): 60; Plant response rating: Morningglory ([6]; 16 g ai/ha): 10; Plant response rating: Morningglory ([6]; 31 g ai/ha): 50; Plant response rating: Morningglory ([6]; 62 g ai/ha): 50; Plant response rating: Morningglory ([6]; 125 g ai/ha): 65; Plant response rating: Morningglory ([6]; 250 g ai/ha): 65; Plant response rating: Kochia ([7]; 16 g ai/ha): 35; Plant response rating: Kochia ([7]; 31 g ai/ha): 65; Plant response rating: Kochia ([7]; 62 g ai/ha): 90; Plant response rating: Kochia ([7]; 125 g ai/ha): 100; Plant response rating: Kochia ([7]; 250 g ai/ha): 100
Cc1nn(-c2ccc(C(F)(F)F)cn2)nc1Oc1ccnc(C(F)(F)F)c1 [Compound 23]	0	0	10	65	65	0	0	10	20	20	0	0	0	20	60	0	0	–	–	–	Plant response rating: Ragweed ([5]; 62 g ai/ha): 0; Plant response rating: Ragweed ([5]; 125 g ai/ha): 0; Plant response rating: Ragweed ([5]; 250 g ai/ha): 25; Plant response rating: Kochia ([7]; 16 g ai/ha): 0; Plant response rating: Kochia ([7]; 31 g ai/ha): 0; Plant response rating: Kochia ([7]; 62 g ai/ha): 60; Plant response rating: Kochia ([7]; 125 g ai/ha): 100; Plant response rating: Kochia ([7]; 250 g ai/ha): 100
Cc1nn(-c2ccc(C(F)(F)F)c(F)c2)nc1Oc1ccnc(C(F)(F)F)c1 [Compound 148]	–	–	–	–	–	–	–	–	–	–	–	–	–	–	–	–	–	0	75	90	Plant response rating, Smartweed [8, 10]: 0
CCc1nn(-c2ccc(C(F)(F)F)cc2)nc1Oc1ccnc(C(F)(F)F)c1 [Compound 169]	–	–	–	–	–	–	–	–	–	–	–	–	–	–	–	–	–	0	40	95	Plant response rating, Smartweed [8, 14]: 35; Plant response rating, Smartweed ([8]; Postemergence, 16 g ai/ha, scale 0 to 100): 10; Plant response rating, Smartweed [8, 15]: 10; Plant response rating, Smartweed ([8]; Postemergence, 62 g ai/ha, scale 0 to 100): 15; Plant response rating, Smartweed [8, 16]: 25; Plant response rating, Smartweed [8, 10]: 0; Plant response rating, Waterhemp, Res1 ([9]; 16 g ai/ha): 85; Plant response rating, Waterhemp, Res1 ([9]; 31 g ai/ha): 90; Plant response rating, Waterhemp, Res1 ([9]; 62 g ai/ha): 90; Plant response rating, Waterhemp, Res1 ([9]; 125 g ai/ha): 95; Plant response rating, Waterhemp, Res1 ([9]; 250 g ai/ha): 95
CCc1nn(-c2ccc(F)c(F)c2)nc1Oc1ccnc(C(F)(F)F)c1 [Compound 171]	–	–	–	–	–	–	–	–	–	–	–	–	–	–	–	–	–	0	0	5	Plant response rating, Smartweed [8, 10]: 0
CCCc1nn(-c2ccc(F)c(F)c2)nc1Oc1ccnc(C(F)(F)F)c1 [Compound 172]	–	–	–	–	–	–	–	–	–	–	–	–	–	–	–	–	–	5	50	98	Plant response rating, Smartweed [8, 14]: 70; Plant response rating, Smartweed [8, 15]: 30; Plant response rating, Smartweed [8, 16]: 60; Plant response rating, Waterhemp, Res1 ([9]; 31 g ai/ha): 70; Plant response rating, Waterhemp, Res1 ([9]; 125 g ai/ha): 95; Plant response rating, Waterhemp, Res1 ([9]; 250 g ai/ha): 95
